From PMC12473906, “Comparing the Altis RepliGut Organoid System to MDCK Monolayers in Predicting the Oral Absorption of Lenalidomide” (Pharmaceutics, 2025)
Read-outs that look alike come from different tables or passages of the source.

Legend:
[1] = Lenalidomide pharmacokinetic study in rats (IV and oral); type: in vivo, Sprague Dawley rats; conditions: for AUC / Cmax / Tmax / half-life / bioavailability: plasma; for bioavailability: po
Protocol: All animal pharmacokinetic experiments were carried out by WuXi (Shanghai, China). Animals were kept on a light-dark cycle and allowed to eat and drink ad libitum. Animals receiving oral doses were fasted overnight. Animals’ condition and behavior were monitored throughout the experiment for signs of pain and distress. We utilized only male rats because similar pharmacokinetics in both genders was previously reported and no dosage adjustment is recommended based on gender, in order to reduce the number of animals required.
Male Sprague Dawley rats (230–280 g) (n = 3 per group) were administered lenalidomide (0.1, 1, 2, 10, and 50 mg/kg). The vehicles for oral and intravenous dosing were 0.6% methylcellulose A15 + 0.2% Tween 80 in water and 10% DMSO + 60% propylene glycol + 30% water, respectively. Serum samples were obtained prior to administration (predose) and at 0.033, 0.083, 0.25, 0.5, 1, 2, 4, and 6 h postdose from the IV group and at 0.083, 0.25, 0.5, 1, 2, 4, 8, and 24 h from the oral groups. Approximately 250 μL was collected at each time point via a catheter at the femoral artery from each rat into prechilled commercial K2-EDTA tubes on wet ice. Samples were centrifuged (3200× g for 10 min at 4 °C) within one hour of collection and frozen at −60 °C or lower before analysis. Approximately 5 mL of whole blood was collected from additional blank animals into prechilled commercial K2-EDTA tubes on wet ice and pooled to serve as blank plasma for bio-analysis. […] Animals were kept in metabolic cages to collect urine, feces, and bile at different periods after dosing. Wet ice was added during the whole collection process for urine and feces. Feces was homogenized in water, and the urine samples and feces homogenates were kept at −70 ± 10 °C until LC-MS/MS analysis. Pharmacokinetic parameters were calculated by non-compartmental methods, as described in Gibaldi and Perrier, using Phoenix® WinNonlin® version 8.5 (Certara L.P., Radnor, PA, USA).
The human equivalent dose (HED) was calculated based on the previously reported AUC after a typical dose in humans. The percentage of lenalidomide excreted in the feces/urine in 24 h was calculated by multiplying the fecal weight/urine volume by its measured lenalidomide concentration and dividing by the total amount of lenalidomide administered.(2) Percentage excreted in feces=100 · Feces weight ·Feces concentration /Dose volume ·Dose concentration (3) Percentage excreted in urine=100 · Urine volume ·Urine concentration /Dose volume ·Dose concentration
For the in vivo study, mass spectrometry detection of lenalidomide was accomplished using a SCIEX QTrap 6500+. Transition pairs used for quantification were as follows: lenalidomide (260.1 → 149.1 Da), labetalol (329.1 → 294.1 Da), indomethacin (357.9 → 139.0 Da), and loperamide (477.1 → 266.2 Da). Separation was achieved using a Waters Acquity UPLC system.
For urine samples, mobile phase A was 0.1% NH4OH and 2 mM NH4OAc in water/acetonitrile (v:v, 95:5), and mobile phase B was 0.1% NH4OH and 2 mM NH4OAc in acetonitrile/water (v:v, 95:5). Mobile phases were operated at the following gradient: initial, 1% B; 0–0.2 min, 1% B; 0.2–1, 30% B; 1–1.5, 100% B; 1.5–1.9, 100% B; 1.9–1.91, 1% B; and 1.91–2, 1% B. The column used was a Waters Acquity UPLC BEH C18 1.7 μm (2.1 × 50 mm) with flow rate of 0.6 mL/min and column oven temperature of 60 °C.
For plasma and feces samples, mobile phase A was 0.1% formic acid and 2 mM HCOONH4 in water, and mobile phase B was 0.1% formic acid and 2 mM HCOONH4 in acetonitrile/water (v:v, 95:5). Mobile phases were operated at the following gradient: initial, 1% B; 0–0.3 min, 1% B; 0.3–1.5, 30% B; 1.5–2.1, 95% B; 2.1–2.4, 95% B; 2.4–2.41, 1% B; and 2.41–2.5, 1% B. The column used was a Waters Acquity UPLC HSS T3 1.8 μm (2.1 × 50 mm) with a flow rate of 0.6 mL/min and a column oven temperature of 45 °C.
For in vivo studies, feces samples were homogenized at a ratio of 1 g feces to 9 mL buffer. […]

gMDCK monolayers = assay: gMDCK (P-gp knockout MDCK) monolayer permeability assay
[2] = cited from earlier work
[3] = test system: MDCK cells and other traditional in vitro systems; conditions: cited from earlier work
BCRP = test system: BCRP; parameters: method as in PMID 24627218; conditions: vesicles with BCRP; cited from earlier work
[4] = Sprague Dawley, rat, male rats, 0.1 mg/kg PO
[5] = Sprague Dawley, rat, male rats, 1 mg/kg IV
[6] = Sprague Dawley, rat, male rats, 2 mg/kg PO
[7] = Sprague Dawley, rat, male rats, 10 mg/kg PO
[8] = Sprague Dawley, rat, male rats, 50 mg/kg PO

dose excreted ([1]; Sprague Dawley, rat, feces, male rats, 0.1 mg/kg PO, read-out: Fecal Recovery): 12% | dose excreted ([1]; Sprague Dawley, rat, feces, male rats, 1 mg/kg IV, 24 h, read-out: Fecal Recovery): 3.2% | dose excreted ([1]; Sprague Dawley, rat, feces, male rats, 2 mg/kg PO, read-out: Fecal Recovery): 12% | dose excreted ([1]; Sprague Dawley, rat, feces, male rats, 10 mg/kg PO, read-out: Fecal Recovery): 10% | dose excreted ([1]; Sprague Dawley, rat, feces, male rats, 50 mg/kg PO, read-out: Fecal Recovery): 16% | AUC [1, 4]: 0.29 µM·h | Cmax [1, 4]: 0.2 µM | Tmax [1, 4]: 25.2 min | half-life [1, 4]: 52.2 min | Cmax [1, 5]: 4.9 µM | Tmax [1, 5]: 1.8 min | half-life [1, 5]: 72 min | AUC ([1]; Sprague Dawley, rat, male rats, 1 mg/kg IV, serum, n=3): 2.34 µM·h | AUC [1, 6]: 5.44 µM·h | Cmax [1, 6]: 1.6 µM | Tmax [1, 6]: 19.8 min | half-life [1, 6]: 84 min | AUC [1, 7]: 15.4 µM·h | Cmax [1, 7]: 8.4 µM | Tmax [1, 7]: 25.2 min | half-life [1, 7]: 84 min | AUC [1, 8]: 79.4 µM·h | Cmax [1, 8]: 29 µM | Tmax [1, 8]: 30 min | half-life [1, 8]: 162 min | dose excreted ([1]; Sprague Dawley, rat, urine, male rats, 0.1 mg/kg PO, read-out: Urinary Recovery): 47% | dose excreted ([1]; Sprague Dawley, rat, urine, male rats, 1 mg/kg IV, 24 h, unchanged drug, read-out: Urinary Recovery): 87% | dose excreted ([1]; Sprague Dawley, rat, urine, male rats, 2 mg/kg PO, read-out: Urinary Recovery): 45% | dose excreted ([1]; Sprague Dawley, rat, urine, male rats, 10 mg/kg PO, read-out: Urinary Recovery): 48% | dose excreted ([1]; Sprague Dawley, rat, urine, male rats, 50 mg/kg PO, read-out: Urinary Recovery): 43% | BA ([1]; male rats, 0.1 mg/kg PO): 122% | BA ([1]; male rats, 1 mg/kg IV (reference)): 100% | BA ([1]; male rats, 2 mg/kg PO): 116% | BA ([1]; male rats, 10 mg/kg PO): 66.0% | BA ([1]; male rats, 50 mg/kg PO): 67.9% | dose excreted ([1]; male, Sprague Dawley, rat, feces, rats, across oral doses, read-out: fecal recovery): ~12% | bioavailability ([1]; male, Sprague Dawley, rat, rats, all doses): 68 to 120% | bioavailability ([1]; male, Sprague Dawley, rat, rats, low doses): > 100% | Tmax ([1]; male, Sprague Dawley, rat, rats, across oral doses): ~30 min | CL renal ([1]; male, Sprague Dawley, rat, urine and plasma, iv, 1 mg/kg, read-out: CLR (renal clearance)): 24 mL/min/kg | dose excreted ([1]; male, Sprague Dawley, rat, urine, rats, all oral doses, read-out: Urinary recovery): ~45% | Human Equivalent Dose ([1]; rat 2 mg/kg PO): ~26 mg | Human Equivalent Dose ([1]; rat 10 mg/kg PO): ~73 mg | Human Equivalent Dose ([1]; rat 50 mg/kg PO): ~376 mg | effect of 4% bovine serum albumin in the receiver side on apparent permeability (gMDCK monolayers; gMDCK, sink condition): did not increase | effect of shaking gMDCK cells during the permeability assay on permeability (gMDCK monolayers; shaking transwell plate at 1000 rpm): did not significantly change
SMILES: Nc1cccc2c1CN(C1CCC(=O)NC1=O)C2=O (stereo not drawn) [Lenalidomide]
Human Fa (fraction absorbed) [2]: 90% [21] | Elimination half-life ([2]; humans): 180 to 300 min | Metabolism ([2]; humans): < 5% | Oral bioavailability ([2]; humans): > 90% | Route of elimination ([2]; humans): Renal | BCS class [3]: 3 | In vitro permeability [3]: Low | BCRP substrate (BCRP): not a BCRP substrate
